# Target: T1, stearoyl-CoA desaturase (SCD) (Rattus norvegicus, UniProt P07308)
# T1 construct: 0.032 mg/ml rat liver microsomes (total protein content); from tissue
# T1 sequence (P07308 1-358): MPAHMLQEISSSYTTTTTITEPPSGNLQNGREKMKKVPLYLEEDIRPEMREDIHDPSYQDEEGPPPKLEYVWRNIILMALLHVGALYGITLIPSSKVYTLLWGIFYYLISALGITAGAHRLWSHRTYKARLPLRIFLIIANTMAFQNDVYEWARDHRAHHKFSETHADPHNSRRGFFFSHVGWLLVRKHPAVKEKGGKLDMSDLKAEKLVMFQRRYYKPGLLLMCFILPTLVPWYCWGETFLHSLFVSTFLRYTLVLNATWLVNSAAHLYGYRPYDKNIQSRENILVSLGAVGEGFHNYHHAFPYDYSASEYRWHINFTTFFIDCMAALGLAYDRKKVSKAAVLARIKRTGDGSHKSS
# Test: Tritium release screening assay for inhibition of stearoyl-CoA desaturase activity in rat liver microsomes (96- or 384-well)
# Assay type: biochemical
# Conditions: [3H]-stearoyl-CoA, 20 min pre-incubation, 20 min reaction
# Description: The tritium release assay for the measurement of SCD activity is thus well documented in the literature. Descriptions on how these finding have been used to produce standard screening assays in 96-well plates are also available [Brownlie, Hayden, Attie, Ntambi, Gray-Keller, & Miyazaki (2001) WO 01/62954; Wu, Gallipoli, Gallagher, & Gardell (2004) WO 2004/04776]. We have adopted the tritium release assay to a 384-well format to improve throughput even further.
# Microsomal preparations were prepared from the livers of Male Sprague-Dawley rats that had been fasted and then refed a low fat/high carbohydrate diet. The preparation of microsomes was adopted from Seifried and Gaylor [Seifried & Gaylor (1976) J. Biol. Chem. 251, 7468-7473]. Confirmation of compound activity on human material was made based on microsomal preparations from HepG2 cells. All other reagents were purchased from commercial sources. The assay was run in 96 or 384-well microtiter plates by consecutive additions of a test compound solution, a microsomal preparation solution and a substrate containing solution. The final concentrations of all reagents in a total assay volume of 40 μl per well (in the 384-well plate format) were: • 0.11 μM [^3H]-stearoyl-CoA • 50 nM stearoyl-CoA • 0.032 mg/ml rat liver microsomes (total protein content) • 2 mM NADH • 220 mM sucrose • 44 mM NaH2PO4 pH adjusted to 6.8 • 130 mM KCl • 1.3 mM GSH • 0.05 mM CoA • 0.1% BSA • 0.29 mM nicotine amide • 15 mM NaF • 1.1 mM ATP • 4.9 mM MgCl2 • 0.002% Tween-20 • A test compound at various concentrations (which also adds 0.5-2% DMSO to the final solution)
# The test compounds were pre-incubated for 20 minutes with the microsomal preparation prior to starting the reaction by the addition of substrate. The enzymatic reaction was allowed to proceed for 20 minutes and then optionally slowed by an addition of 40 μl of a 2% DMSO solution in water containing a known inhibitor of SCD activity. The solutions were mixed and then 70 μl of the total 80 μl were transferred to a filter plate containing predispensed activated charcoal. The plate was then centrifuged and the filtrate collected in a collector plate to which 40 μl of Optiphase Supermix was added per well. Following an 18 h equilibration time at room temperature the plate was read in a Trilux MicroBeta (two minutes counting time per well). […] The inhibitory potency or IC50 values of test compounds on SCD activity were defined by applying the same assay in the presence of sub-nM to sub-mM compound concentrations.
row,Structure (SMILES),IC50 [µM]
1,"O=CNCCNC(=O)c1cnn2cc(Cc3ccc(Br)cc3)cnc12 [Example 25, 6-(4-Bromobenzyl)-N-[2-(formylamino)ethyl]pyrazolo[1,5-α]pyrimidine-3-carboxamide]",0.027
2,"Cc1nc2c(C(=O)NCCOCCO)cnn2cc1Cc1ccc(F)c(OC(F)(F)F)c1 [Example 38, 6-[4-Fluoro-3-(trifluoromethoxy)benzyl]-N-[2-(2-hydroxyethoxy)ethyl]-5-methyl-pyrazolo[1,5-α]pyrimidine-3-carboxamide]",0.14
3,"Cc1c(Cc2ccccc2)cnc2c(C(=O)NCCOCCO)cnn12 [Example 39, 6-Benzyl-N-[2-(2-hydroxyethoxy)ethyl]-7-methylpyrazolo[1,5-α]pyrimidine-3-carboxamide]",0.61
4,"NC(=O)COC(=O)c1cnn2cc(Cc3ccc(F)c(C(F)(F)F)c3)cnc12 [Example 48, 2-Amino-2-oxoethyl 6-[4-fluoro-3-(trifluoromethyl)benzyl]pyrazolo[1,5-α]pyrimidine-3-carboxylate]",0.091

# Now from value to compound:
row,IC50 [µM],Structure (SMILES)
1,0.48,"NC(=O)CNC(=O)c1cnn2cc(Sc3cccc(C(F)(F)F)c3)cnc12 [Example 50, N-(2-Amino-2-oxoethyl)-6-{[3-(trifluoromethyl)phenyl]thio}pyrazolo[1,5-α]-pyrimidine-3-carboxamide]"
2,0.022,"NC(=O)CNC(=O)c1cnn2cc(Cc3cccc(Cl)c3Cl)cnc12 [Example 56, N-(2-Amino-2-oxoethyl)-6-(2,3-dichlorobenzyl)pyrazolo[1,5-α]pyrimidine-3-carboxamide]"

# From patent publication US20080255153A1, “New compounds” (BIOVITRUM AB (publ), priority 2007, published 2008)
